According to ChEMBL document CHEMBL5303765, “Data for DCP probe BAY-7081” (2023):
Active and inactive are the calls of the source. The calls are words filed in the database; no cut-off is given here.

How the values were obtained:
[1] = biological target: Serine/threonine-protein kinase pim-1 (Homo sapiens) (UniProt P11309); assay: PIM1 SGC Tm panel (DSF); settings: for ΔTm: Compound concentration 10.0 uM
[2] = biological target: High affinity cGMP-specific 3',5'-cyclic phosphodiesterase 9A (Mus musculus, UniProt O70628); assay: Cellular PDE9A assay; format: functional
[3] = biological target: T1, Transcription intermediary factor 1-alpha (Homo sapiens) (UniProt O15164); assay: TIF1 SGC Tm panel (DSF); settings: for ΔTm: Compound concentration 10.0 uM
T1 sequence (whole entry): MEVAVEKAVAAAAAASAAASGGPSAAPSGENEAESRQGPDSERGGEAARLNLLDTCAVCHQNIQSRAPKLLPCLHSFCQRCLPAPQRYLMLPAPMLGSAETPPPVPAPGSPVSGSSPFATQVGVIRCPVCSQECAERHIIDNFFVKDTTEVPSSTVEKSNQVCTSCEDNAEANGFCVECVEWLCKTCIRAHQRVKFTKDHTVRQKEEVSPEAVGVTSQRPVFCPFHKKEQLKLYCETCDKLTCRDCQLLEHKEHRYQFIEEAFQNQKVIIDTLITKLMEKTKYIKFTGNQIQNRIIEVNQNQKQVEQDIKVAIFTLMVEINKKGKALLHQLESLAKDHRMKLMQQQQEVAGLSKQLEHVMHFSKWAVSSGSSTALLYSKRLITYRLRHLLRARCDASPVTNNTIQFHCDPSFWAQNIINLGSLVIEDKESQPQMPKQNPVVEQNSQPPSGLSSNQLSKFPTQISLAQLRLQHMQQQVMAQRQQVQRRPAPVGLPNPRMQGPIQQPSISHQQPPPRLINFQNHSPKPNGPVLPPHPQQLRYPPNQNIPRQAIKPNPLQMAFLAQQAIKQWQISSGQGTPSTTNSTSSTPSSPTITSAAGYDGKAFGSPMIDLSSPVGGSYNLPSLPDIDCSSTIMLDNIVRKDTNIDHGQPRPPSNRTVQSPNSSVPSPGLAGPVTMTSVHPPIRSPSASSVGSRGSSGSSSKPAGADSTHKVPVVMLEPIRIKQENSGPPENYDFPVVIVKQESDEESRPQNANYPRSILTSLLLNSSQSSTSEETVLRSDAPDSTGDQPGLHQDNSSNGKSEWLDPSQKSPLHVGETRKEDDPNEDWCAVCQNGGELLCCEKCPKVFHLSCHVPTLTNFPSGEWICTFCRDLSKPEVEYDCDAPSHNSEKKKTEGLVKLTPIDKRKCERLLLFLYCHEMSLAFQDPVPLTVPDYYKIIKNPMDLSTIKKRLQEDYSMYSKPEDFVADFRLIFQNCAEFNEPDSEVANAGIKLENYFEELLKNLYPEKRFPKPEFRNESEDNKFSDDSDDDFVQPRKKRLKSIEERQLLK

[4] = biological target: Ephrin type-A receptor 7 (Homo sapiens) (UniProt Q15375); assay: EPHA7 SGC Tm panel (DSF); settings: for ΔTm: Compound concentration 10.0 uM
[5] = biological target: Dual specificity mitogen-activated protein kinase kinase 1 (Homo sapiens) (UniProt Q02750); assay: MAP2K1 SGC Tm panel (DSF); settings: for ΔTm: Compound concentration 10.0 uM
[6] = biological target: Casein kinase II subunit alpha' (Homo sapiens) (UniProt P19784); assay: CSNK2A2 SGC Tm panel (DSF); settings: for ΔTm: Compound concentration 10.0 uM
[7] = biological target: T2, Membrane-associated tyrosine- and threonine-specific cdc2-inhibitory kinase (Homo sapiens) (UniProt Q99640); assay: PKMYT1 SGC Tm panel (DSF); settings: for ΔTm: Compound concentration 10.0 uM
T2 sequence (whole entry): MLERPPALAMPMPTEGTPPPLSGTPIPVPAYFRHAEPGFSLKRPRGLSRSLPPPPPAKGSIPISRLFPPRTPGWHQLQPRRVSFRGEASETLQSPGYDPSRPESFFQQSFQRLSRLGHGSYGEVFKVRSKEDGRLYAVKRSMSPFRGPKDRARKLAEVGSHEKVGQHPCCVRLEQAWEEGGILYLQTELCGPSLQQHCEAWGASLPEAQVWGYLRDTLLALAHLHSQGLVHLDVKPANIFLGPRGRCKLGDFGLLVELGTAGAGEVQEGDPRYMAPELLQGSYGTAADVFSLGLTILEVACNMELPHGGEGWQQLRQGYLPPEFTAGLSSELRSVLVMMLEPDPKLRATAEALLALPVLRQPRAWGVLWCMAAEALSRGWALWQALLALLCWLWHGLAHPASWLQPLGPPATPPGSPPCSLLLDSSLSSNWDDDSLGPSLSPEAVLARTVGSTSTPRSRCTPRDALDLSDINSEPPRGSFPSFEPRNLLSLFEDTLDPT

[8] = biological target: G protein-coupled receptor kinase 5 (Homo sapiens) (UniProt P34947); assay: GPRK5 SGC Tm panel (DSF); settings: for ΔTm: Compound concentration 10.0 uM
[9] = biological target: STE20-like serine/threonine-protein kinase (Homo sapiens) (UniProt Q9H2G2); assay: SLK SGC Tm panel (DSF); settings: for ΔTm: Compound concentration 10.0 uM
[10] = biological target: Aurora kinase B (Homo sapiens) (UniProt Q96GD4); assay: AURKB SGC Tm panel (DSF); settings: for ΔTm: Compound concentration 10.0 uM
[11] = biological target: Sodium-dependent noradrenaline transporter (Homo sapiens) (UniProt P23975); settings: Compound concentration 10.0 uM
[12] = biological target: T3, 5-hydroxytryptamine receptor 2C (Homo sapiens) (UniProt P28335); settings: Compound concentration 10.0 uM
T3 sequence (whole entry): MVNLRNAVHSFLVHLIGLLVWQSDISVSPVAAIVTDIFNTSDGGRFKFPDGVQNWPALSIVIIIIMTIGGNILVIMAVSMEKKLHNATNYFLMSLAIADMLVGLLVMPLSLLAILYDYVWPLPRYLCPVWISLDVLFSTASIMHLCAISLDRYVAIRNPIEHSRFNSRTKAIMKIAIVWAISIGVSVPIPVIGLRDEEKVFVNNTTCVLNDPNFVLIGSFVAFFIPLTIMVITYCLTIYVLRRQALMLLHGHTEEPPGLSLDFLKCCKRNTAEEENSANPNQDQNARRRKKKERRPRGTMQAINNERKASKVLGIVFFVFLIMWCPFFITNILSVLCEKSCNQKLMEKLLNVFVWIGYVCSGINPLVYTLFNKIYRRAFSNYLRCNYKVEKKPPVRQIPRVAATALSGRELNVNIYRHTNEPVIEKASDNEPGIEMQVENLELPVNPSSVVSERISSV

[13] = biological target: D(3) dopamine receptor (Homo sapiens) (UniProt P35462); settings: Compound concentration 10.0 uM
[14] = biological target: Ephrin type-A receptor 4 (Homo sapiens) (UniProt P54764); assay: EPHA4 SGC Tm panel (DSF); settings: for ΔTm: Compound concentration 10.0 uM
[15] = biological target: 5-hydroxytryptamine receptor 7 (Homo sapiens) (UniProt P34969); settings: Compound concentration 10.0 uM
Chain of 5-hydroxytryptamine receptor 7 (Homo sapiens) (P34969 whole entry): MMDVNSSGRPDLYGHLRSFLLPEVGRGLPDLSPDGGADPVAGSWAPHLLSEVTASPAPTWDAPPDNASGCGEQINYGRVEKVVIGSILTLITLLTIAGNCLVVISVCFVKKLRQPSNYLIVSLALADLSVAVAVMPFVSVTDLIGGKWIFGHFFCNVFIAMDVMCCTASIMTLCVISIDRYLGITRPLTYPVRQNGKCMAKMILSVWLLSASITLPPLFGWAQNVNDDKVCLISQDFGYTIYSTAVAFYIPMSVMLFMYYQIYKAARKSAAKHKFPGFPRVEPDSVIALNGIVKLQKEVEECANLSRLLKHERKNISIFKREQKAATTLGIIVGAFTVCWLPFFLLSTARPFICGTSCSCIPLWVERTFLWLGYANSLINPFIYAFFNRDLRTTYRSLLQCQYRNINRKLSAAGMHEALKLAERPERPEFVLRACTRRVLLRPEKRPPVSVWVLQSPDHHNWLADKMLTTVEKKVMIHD

Chain of Dual specificity mitogen-activated protein kinase kinase 1 (Homo sapiens) (Q02750 whole entry): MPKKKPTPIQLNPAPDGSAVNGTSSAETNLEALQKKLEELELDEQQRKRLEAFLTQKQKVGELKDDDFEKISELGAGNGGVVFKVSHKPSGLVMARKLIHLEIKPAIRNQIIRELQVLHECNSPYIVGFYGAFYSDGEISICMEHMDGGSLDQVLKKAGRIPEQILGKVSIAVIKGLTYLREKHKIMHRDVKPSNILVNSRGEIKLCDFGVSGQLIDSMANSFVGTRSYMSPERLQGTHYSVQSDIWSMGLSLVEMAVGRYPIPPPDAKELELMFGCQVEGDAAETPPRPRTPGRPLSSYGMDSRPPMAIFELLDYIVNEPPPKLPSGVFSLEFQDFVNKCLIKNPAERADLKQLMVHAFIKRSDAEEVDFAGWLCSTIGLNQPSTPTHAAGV
Chain of STE20-like serine/threonine-protein kinase (Homo sapiens) (Q9H2G2 whole entry, looked up): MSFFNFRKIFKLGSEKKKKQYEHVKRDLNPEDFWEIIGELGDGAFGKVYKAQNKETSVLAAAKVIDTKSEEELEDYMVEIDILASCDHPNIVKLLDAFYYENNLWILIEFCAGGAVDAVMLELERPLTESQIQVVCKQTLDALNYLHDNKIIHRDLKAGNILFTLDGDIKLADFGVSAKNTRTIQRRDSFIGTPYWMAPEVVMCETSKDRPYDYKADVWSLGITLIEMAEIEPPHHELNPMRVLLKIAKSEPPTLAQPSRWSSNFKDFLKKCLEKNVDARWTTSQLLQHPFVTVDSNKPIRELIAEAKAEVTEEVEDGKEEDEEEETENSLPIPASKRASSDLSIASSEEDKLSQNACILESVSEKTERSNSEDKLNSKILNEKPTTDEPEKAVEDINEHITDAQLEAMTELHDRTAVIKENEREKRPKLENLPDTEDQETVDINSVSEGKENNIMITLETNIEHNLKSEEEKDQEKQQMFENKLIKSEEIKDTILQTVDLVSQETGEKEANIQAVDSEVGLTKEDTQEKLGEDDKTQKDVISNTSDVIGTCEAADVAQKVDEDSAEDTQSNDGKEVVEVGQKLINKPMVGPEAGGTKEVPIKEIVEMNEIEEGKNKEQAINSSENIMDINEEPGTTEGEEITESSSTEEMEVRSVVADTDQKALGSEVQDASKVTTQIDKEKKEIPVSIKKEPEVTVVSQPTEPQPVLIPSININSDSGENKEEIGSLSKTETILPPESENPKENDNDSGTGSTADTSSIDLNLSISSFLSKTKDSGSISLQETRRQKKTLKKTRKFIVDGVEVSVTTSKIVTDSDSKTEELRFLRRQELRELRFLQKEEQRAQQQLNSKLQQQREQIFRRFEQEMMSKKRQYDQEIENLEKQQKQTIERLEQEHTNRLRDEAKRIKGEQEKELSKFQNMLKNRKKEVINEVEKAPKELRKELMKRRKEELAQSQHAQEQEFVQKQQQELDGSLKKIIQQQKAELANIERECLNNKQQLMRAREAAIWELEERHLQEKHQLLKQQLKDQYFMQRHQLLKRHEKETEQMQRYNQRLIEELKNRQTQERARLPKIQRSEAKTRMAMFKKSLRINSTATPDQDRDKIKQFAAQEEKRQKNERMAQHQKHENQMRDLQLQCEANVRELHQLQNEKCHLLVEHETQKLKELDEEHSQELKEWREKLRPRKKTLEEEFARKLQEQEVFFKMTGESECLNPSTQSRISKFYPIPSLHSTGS
Chain of D(3) dopamine receptor (Homo sapiens) (P35462 whole entry): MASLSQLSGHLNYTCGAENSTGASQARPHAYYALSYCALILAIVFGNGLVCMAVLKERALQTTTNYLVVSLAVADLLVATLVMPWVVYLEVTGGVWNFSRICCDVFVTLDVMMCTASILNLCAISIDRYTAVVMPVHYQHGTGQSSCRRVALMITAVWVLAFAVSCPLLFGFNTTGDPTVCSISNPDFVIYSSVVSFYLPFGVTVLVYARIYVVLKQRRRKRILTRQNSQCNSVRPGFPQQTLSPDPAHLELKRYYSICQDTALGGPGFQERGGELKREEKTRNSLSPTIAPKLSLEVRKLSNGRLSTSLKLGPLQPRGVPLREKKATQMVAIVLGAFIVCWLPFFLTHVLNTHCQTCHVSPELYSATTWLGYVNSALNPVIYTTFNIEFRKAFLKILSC
Chain of Serine/threonine-protein kinase pim-1 (Homo sapiens) (P11309 whole entry, looked up): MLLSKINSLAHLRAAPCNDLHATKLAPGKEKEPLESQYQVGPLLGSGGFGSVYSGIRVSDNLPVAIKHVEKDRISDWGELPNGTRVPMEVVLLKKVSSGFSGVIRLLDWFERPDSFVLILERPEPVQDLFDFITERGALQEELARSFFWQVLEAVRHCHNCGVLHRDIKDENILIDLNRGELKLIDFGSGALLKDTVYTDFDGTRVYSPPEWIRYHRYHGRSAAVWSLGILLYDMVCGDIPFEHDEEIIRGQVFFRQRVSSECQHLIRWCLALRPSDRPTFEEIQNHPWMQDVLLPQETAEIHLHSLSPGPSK
Chain of Casein kinase II subunit alpha' (Homo sapiens) (P19784 whole entry, looked up): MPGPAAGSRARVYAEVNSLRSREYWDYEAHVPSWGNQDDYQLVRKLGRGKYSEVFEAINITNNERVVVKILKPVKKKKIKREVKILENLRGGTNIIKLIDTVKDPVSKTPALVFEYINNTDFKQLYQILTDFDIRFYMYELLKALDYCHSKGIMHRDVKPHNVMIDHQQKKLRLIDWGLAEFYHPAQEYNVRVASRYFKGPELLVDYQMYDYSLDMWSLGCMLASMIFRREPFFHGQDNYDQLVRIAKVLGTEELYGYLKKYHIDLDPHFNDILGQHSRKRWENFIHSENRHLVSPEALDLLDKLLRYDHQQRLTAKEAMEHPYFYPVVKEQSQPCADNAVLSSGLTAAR
Chain of G protein-coupled receptor kinase 5 (Homo sapiens) (P34947 whole entry, looked up): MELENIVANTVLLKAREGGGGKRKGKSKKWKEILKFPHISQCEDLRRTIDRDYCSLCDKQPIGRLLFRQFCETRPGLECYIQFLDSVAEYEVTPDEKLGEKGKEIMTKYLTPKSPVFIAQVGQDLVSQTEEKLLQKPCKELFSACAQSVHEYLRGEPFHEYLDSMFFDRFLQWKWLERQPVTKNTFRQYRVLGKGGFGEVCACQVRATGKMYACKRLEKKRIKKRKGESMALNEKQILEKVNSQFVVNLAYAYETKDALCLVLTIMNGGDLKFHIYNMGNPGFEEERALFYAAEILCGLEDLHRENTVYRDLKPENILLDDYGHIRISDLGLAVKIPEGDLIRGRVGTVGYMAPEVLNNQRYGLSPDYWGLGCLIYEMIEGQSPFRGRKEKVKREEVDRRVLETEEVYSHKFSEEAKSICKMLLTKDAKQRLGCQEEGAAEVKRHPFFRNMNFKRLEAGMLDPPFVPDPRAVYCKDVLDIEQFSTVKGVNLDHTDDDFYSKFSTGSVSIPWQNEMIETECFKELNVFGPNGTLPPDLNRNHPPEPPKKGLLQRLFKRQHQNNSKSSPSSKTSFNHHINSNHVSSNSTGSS
Chain of Sodium-dependent noradrenaline transporter (Homo sapiens) (P23975 whole entry): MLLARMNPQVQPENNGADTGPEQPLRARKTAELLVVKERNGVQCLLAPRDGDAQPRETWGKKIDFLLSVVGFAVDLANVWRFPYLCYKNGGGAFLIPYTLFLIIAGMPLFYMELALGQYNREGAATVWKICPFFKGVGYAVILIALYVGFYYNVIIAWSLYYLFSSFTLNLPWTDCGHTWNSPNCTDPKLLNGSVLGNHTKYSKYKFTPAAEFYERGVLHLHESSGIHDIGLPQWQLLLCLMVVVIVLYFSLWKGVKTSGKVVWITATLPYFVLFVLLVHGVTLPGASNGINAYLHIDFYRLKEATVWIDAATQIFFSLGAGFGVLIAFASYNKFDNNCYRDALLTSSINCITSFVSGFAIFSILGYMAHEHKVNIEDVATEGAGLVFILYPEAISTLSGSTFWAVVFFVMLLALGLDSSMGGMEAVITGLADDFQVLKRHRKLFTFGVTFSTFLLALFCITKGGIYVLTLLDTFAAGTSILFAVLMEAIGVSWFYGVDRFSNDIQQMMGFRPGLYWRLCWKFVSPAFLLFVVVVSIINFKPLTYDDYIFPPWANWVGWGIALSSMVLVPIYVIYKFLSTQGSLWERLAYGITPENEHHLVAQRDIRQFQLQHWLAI
Chain of Aurora kinase B (Homo sapiens) (Q96GD4 whole entry): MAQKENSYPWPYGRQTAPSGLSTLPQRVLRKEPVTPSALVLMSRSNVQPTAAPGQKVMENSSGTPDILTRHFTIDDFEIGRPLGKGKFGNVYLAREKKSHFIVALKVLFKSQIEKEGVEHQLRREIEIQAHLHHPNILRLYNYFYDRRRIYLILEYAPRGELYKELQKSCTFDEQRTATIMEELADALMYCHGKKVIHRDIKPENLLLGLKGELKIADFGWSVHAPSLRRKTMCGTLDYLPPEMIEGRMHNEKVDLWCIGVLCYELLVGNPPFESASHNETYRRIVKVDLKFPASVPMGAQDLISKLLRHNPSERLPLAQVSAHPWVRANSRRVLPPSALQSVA

Row | Compound | delta Tm Staurosporine positive control [1] | ΔTm [1] | EC50 [2] | delta Tm Staurosporine positive control [3] | ΔTm [3] | delta Tm Staurosporine positive control [4] | ΔTm [4] | delta Tm Staurosporine positive control [5] | ΔTm [5] | delta Tm Staurosporine positive control [6] | ΔTm [6] | delta Tm Staurosporine positive control [7] | ΔTm [7] | delta Tm Staurosporine positive control [8] | ΔTm [8] | delta Tm Staurosporine positive control [9] | ΔTm [9] | delta Tm Staurosporine positive control [10] | ΔTm [10] | inhibition [11] [%] | other results
1 | CCC[C@@H]1CNCc2c1[nH]c(=O)c(C#N)c2N1CCC2(CC1)CC2 | 12.2 | -0.124 | > 10 µM (not active) | 0.0394 | -0.244 | 12.1 | -0.583 | 6.3 | -0.203 | 4.21 | -0.242 | 0.0474 | -0.384 | 7.03 | 0.00192 | 15.4 | -1.06 | 14.1 | -0.199 | -7.72 | inhibition [12]: 9.88%; inhibition [13]: -9.68%; delta Tm Staurosporine positive control [14]: 6.68; ΔTm [14]: -0.295; inhibition [15]: -2.3%
2 | CCC[C@H]1CNCc2c1[nH]c(=O)c(C#N)c2N1CCC2(CC1)CC2 | 12.2 | -0.108 | 0.995 µM (active) | 0.0394 | -0.211 | 12.1 | -0.592 | 6.3 | -0.252 | 4.21 | -0.244 | 0.0474 | -0.47 | 7.03 | 0.0527 | 15.4 | -0.579 | 14.1 | -0.229 | -3.72 | inhibition [12]: 8.81%; inhibition [13]: 12.3%; delta Tm Staurosporine positive control [14]: 6.68; ΔTm [14]: -0.324; inhibition [15]: 16.3%
